Assay results taken from patent publication US7531545B2, “2-amino-3,4-dihydro-pyrido[3,4-d]pyrimidine derivatives useful as inhibitors of β-secretase (BACE)” (Janssen Pharmaceutica, N.V., priority 2005, dated 2009).
Where a name gives a salt, the structure may show the parent alone.

Legend:
β-secretase (BACE) = target: T1, β-secretase (BACE) (Homo sapiens, UniProt P56817); assay: BACE FS1 Assay (% Inhibition and Ki); type: biochemical; conditions: FS1 substrate; for inhibition at 0.3 µM: read-out: % Inhibition (FS) @ 0.3 μM; for inhibition at 1 µM: 1 μM test compound, read-out: % Inhibition (FS) @ 1 μM; for inhibition at 3 µM: 3 μM test compound, read-out: % Inhibition (FS) @ 3 μM
T1 construct: purchased Panvera
Method: BACE FS1 Assay (% Inhibition and Ki)
The following reagents were used in this assay: sodium acetate, PEG8000 (Sigma), DMSO, HEPES, FS1 substrate [R(AedensE)[…]-(DabcylK)R], β-secretase (BACE) (Panvera), and 96-well plate (HE microplate, Molecular Devices).
The following assay buffers were prepared and used in this assay: (1) enzyme assay buffer (0.05 M sodium acetate, pH5, 0.1% PEG8000 (w/v)), (2) substrate assay buffer (0.05 M sodium acetate, pH5), and (3) compound vehicle (30% DMSO in 50 mM HEPES, pH 7.4).
The FS1-substrate stock solution was prepared in DMSO as a 10 mg/mL solution. The FS1-substrate working solution was prepared by diluting the 10 mg/mL stock solution with substrate assay buffer to a final concentration of 300 μg/mL. The β-secretase (BACE) working solution was prepared by diluting a 0.83 mg/mL BACE stock solution with enzyme assay buffer to a final concentration of 4 μg/mL.
Test compounds were dissolved in DMSO to 10 mM. Compounds were further diluted in vehicle to various concentrations in the range of 405 μM to 4.05 μM (13.5× final compound concentration in screening plate).
The screening procedure for this assay was as follows: 15 μL of BACE working solution was pipetted into each well of a 96-well plate. To each well was then pipetted 2 μL of test compound at the selected concentration. Test compound and BACE were then mixed with a pipettor and incubated for 20 min at room temperature. To each well was then added 10 μL of the FS1 substrate working solution. The plates were then incubated for 1 hour at room temperature. The fluorescence for each well was then measured on an LJL analyst (Ex 360 nm/Em 530 nm).
The procedure for the blank was as follows. 15 μL of assay buffer was pipetted into each well to be used as a blank control. To each well was then added 2 μL of vehicle and […] of FS1-substrate working solution. The plates were then incubated for 1 hour at room temperature. The fluorescence was measured on an LJL analyst (Ex 360 nm/Em 530 nm).
The procedure for the positive control was as follows: 15 μL of BACE working solution was pipetted into each well to be used as a positive control. To each well was then pipetted 2 μL of vehicle. Vehicle and BACE were then mixed with a pipettor and incubated for 20 min at room temperature. To each well was then added 10 μL of the FS1 substrate working solution. The plates were then incubated for 1 hour at room temperature. The fluorescence (F1) was then measured on an LJL analyst (Ex 360 nm/Em 530 nm).
For test compounds, % inhibition was determined at each concentration as follows:
% Inhibition values of less than 30% were indistinguishable from control are listed as ≦30% in Table 18, below.
For test compounds, measured at multiple concentrations, the measured T0 and T60 values were used to calculate an IC50 value using Graphpad Software (or PIR). Ki inhibition was determined as follows: For each compound concentration and positive control, rate of cleavage of substrate (Vi, where i=compound concentration in μM) was determined as Δ Fluorescence/Δ time (min). Cleavage rates (Vi) were plotted as a function of inhibitor concentration in μM [I]. […]

human BACE-1 = human BACE-1 (Homo sapiens, UniProt P56817); assay: CEREP BACE Inhibition Assay; type: biochemical; conditions: recombinant enzyme; for inhibition at 1 µM: percent inhibition of the control activity, read-out: % Inhibition @ 1.0 μM; for IC50: read-out: IC50
In short: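 Recombinant human BACE-1 (0.25 μg) was assayed in 0.09 M sodium acetate pH 4.5, with activity followed fluorimetrically as formation of Mca-S-E-V-N-L[…] from peptide substrate. Compound autofluorescence was checked at the detection wavelengths. Basal signal was taken from wells without substrate.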

human BACE-1, sequence (P56817 46-501): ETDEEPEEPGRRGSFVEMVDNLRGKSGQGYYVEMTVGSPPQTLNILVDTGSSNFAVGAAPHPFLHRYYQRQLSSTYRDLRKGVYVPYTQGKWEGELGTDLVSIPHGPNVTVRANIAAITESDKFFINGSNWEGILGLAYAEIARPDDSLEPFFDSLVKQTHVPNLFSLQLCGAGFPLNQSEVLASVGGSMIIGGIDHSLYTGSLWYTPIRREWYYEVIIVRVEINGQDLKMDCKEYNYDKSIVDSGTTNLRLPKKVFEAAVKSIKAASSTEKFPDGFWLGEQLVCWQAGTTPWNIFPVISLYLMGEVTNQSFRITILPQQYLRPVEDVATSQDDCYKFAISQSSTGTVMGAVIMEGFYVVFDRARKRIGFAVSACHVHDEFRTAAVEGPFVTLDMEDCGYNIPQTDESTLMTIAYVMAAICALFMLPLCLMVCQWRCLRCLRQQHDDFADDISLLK
T1 sequence (P56817 46-501): as above

Row | SMILES | inhibition at 0.3 µM (β-secretase (BACE); 0.3 μM test compound) [%] | inhibition at 1 µM (β-secretase (BACE)) [%] | inhibition at 3 µM (β-secretase (BACE)) [%] | Ki (β-secretase (BACE)) [nM] | % Inhibition (FS) @ 0.3 μM (β-secretase (BACE); 0.3 μM test compound, 0.3 µM) [%] | inhibition at 1 µM (human BACE-1) [%] | IC50 (human BACE-1) [nM]
1 | CC(C)C(CCC(=O)N(CCO)C1CCC(c2nnn[nH]2)CC1)N1Cc2cc(Oc3ccccc3)ncc2N=C1N (stereo not drawn) [Compound 12] | 30 | 63 | 95 | 503 | – | – | –
2 | CN(C(=O)CCC(C1CCOCC1)N1Cc2cc(Oc3ccccc3)ncc2N=C1N)C1CCC(C(=O)O)CC1 (stereo not drawn) [Compound 26] | 110 | 124 | 124 | 22 | – | – | –
3 | CC(C)[C@H](CO)NC(=O)CC[C@@H](C(C)C)N1Cc2cc(Oc3ccccc3)ncc2N=C1N [Compound 29] | – | 115 | 119 | 31 | 93 | – | –
4 | CC(C)[C@H](CCC(=O)N(CCO)C(C)C)N1Cc2cc(Oc3ccccc3)ncc2N=C1N [Compound 21] | 51 | 83 | 97 | 74 | – | – | –
5 | CCOC(=O)C1CCC(N(C)C(=O)CCC(C2CCOCC2)N2Cc3cc(Oc4ccccc4)ncc3N=C2N)CC1 (stereo not drawn) [Compound 27] | 16 | 96 | 110 | 193 | – | – | –
6 | CC(C)C(CCC(=O)N(C)C1CCC(C#N)CC1)N1Cc2cc(Oc3ccccc3)ncc2N=C1N (stereo not drawn) [Compound 11] | 47 | 78 | 120 | 124 | – | – | –
7 | CC(C)[C@H](CCC(=O)N(C)C1CCC(c2nnn[nH]2)CC1)N1Cc2cc(Oc3ccccc3)ncc2N=C1N (stereo partly drawn) [Compound 13, 4-(S)-(2-Amino-6-phenoxy-4H-pyrido[3,4-d]pyrimidin-3-yl)-5-methyl-hexanoic acid methyl-[4-(1H-tetrazol-5-yl)-cyclohexyl]-amide] | 30 | 63 | 87 | 517 | – | – | –
8 | CC(C)OCCC(CCC(=O)N(C)C1CCCCC1)N1Cc2cc(Oc3ccccc3)ncc2N=C1N (stereo not drawn) [Compound 24] | 40 | 71 | 103 | 234 | – | – | –
9 | COCCC(CCC(=O)N(C)C1CCCCC1)N1Cc2cc(Oc3ccccc3)ncc2N=C1N (stereo not drawn) [Compound 23] | 32 | 86 | 103 | 151 | – | – | –
10 | COC(=O)[C@H]1CC[C@@H](N(C)C(=O)CC[C@@H](C2CCOCC2)N2Cc3cc(Oc4ccccc4)ncc3N=C2N)CC1 [Compound 32] | 79 | 101 | 109 | 20 | – | – | –
11 | CC(C)[C@H](CCC(=O)N(C)[C@H]1CC[C@@H](C(=O)O)CC1)N1Cc2cc(Oc3ccccc3)ncc2N=C1N [Compound 43] | 110 | 107 | 115 | 16 | – | – | –
12 | CCC(CC)N(CCO)C(=O)CC[C@@H](C1CCCCC1)N1Cc2cc(Oc3ccccc3)ncc2N=C1N [Compound 50] | 68 | 100 | 112 | 58 | – | – | –
13 | CC(C)C(CCC(=O)N(CCO)C1CCC(C(=O)O)CC1)N1Cc2cc(Oc3ccccc3)ncc2N=C1N (stereo not drawn) [Compound 20] | 97 | 102 | 104 | 13 | – | – | –
14 | NC1=Nc2cnc(Oc3ccccc3)cc2CN1CCNC(=O)C1CCCCC1 [Compound 1] | 75 | 102 | 110 | 166 | – | – | –
15 | CC(C)C(CCC(=O)N(CCO)C1CCC(C#N)CC1)N1Cc2cc(Oc3ccccc3)ncc2N=C1N (stereo not drawn) [Compound 10] | 55 | 80 | 114 | 207 | – | – | –
16 | CCOC(=O)C1CCC(N(C)C(=O)CCC(C2CCCCC2)N2Cc3cc(Oc4ccccc4)ncc3N=C2N)CC1 (stereo not drawn) [Compound 17] | 4 | 61 | 86 | 222 | – | – | –
17 | CCOC(=O)CCN(C)C(=O)CC[C@@H](C(C)C)N1Cc2cc(Oc3ccccc3)ncc2N=C1N [Compound 15] | 68 | 94 | 110 | 129 | – | – | –
18 | CC(C)[C@H](CCC(=O)N(C)[C@@H](COCc1ccccc1)C(=O)O)N1Cc2cc(Oc3ccccc3)ncc2N=C1N [Compound 52, 2-{[4-(2-Amino-6-phenoxy-4H-pyrido[3,4-d]pyrimidin-3-yl)-5-methyl-(S)-hexanoyl]-methyl-amino}-3-(S)-benzyloxy-propionic acid trifluoroacetate salt] | 107 | 118 | 118 | 9 | – | – | –
19 | CN(C(=O)CCC(C1CCCCC1)N1Cc2cc(Oc3ccccc3)ncc2N=C1N)C1CCC(C(=O)O)CC1 (stereo not drawn) [Compound 18] | 119 | 121 | 128 | 17 | – | – | –
20 | NC1=Nc2cnc(Oc3ccccc3)cc2CN1CCCC(=O)NC1C2CC3CC(C2)CC1C3 (stereo not drawn) [Compound 6] | 122 | 139 | 138 | 21 | – | – | –
21 | CC(C)[C@H](CCC(=O)N[C@@H](COCc1ccccc1)C(=O)O)N1Cc2cc(Oc3ccccc3)ncc2N=C1N [Compound 47, 2-[4-(2-Amino-6-phenoxy-4H-pyrido[3,4-d]pyrimidin-3-yl)-5-methyl-(S)-hexanoylamino]-3-(S)-benzyloxy-propionic acid] | 109 | 109 | 115 | 72 | – | – | –
22 | COC(=O)[C@H](COCc1ccccc1)NC(=O)CC[C@@H](C(C)C)N1Cc2cc(Oc3ccccc3)ncc2N=C1N [Compound 45, 2-[4-(2-Amino-6-phenoxy-4H-pyrido[3,4-d]pyrimidin-3-yl)-5-methyl-(S)-hexanoylamino]-3-(S)-benzyloxy-propionic acid methyl ester hydrobromide salt] | 82 | 91 | 110 | 127 | – | – | –
23 | COc1ccccc1-c1cc2c(cn1)N=C(N)N([C@@H](CCC(=O)N(C)C1CCCCC1)C1CCCCC1)C2 [Compound 3] | 130 | 132 | 139 | 18 | – | – | –
24 | CC(C)[C@H](CCC(=O)N(CCO)C1CCCCC1)N1Cc2cc(Oc3ccccc3)ncc2N=C1N [Compound 31] | 129 | 125 | 125 | 8 | – | – | –
25 | CC(C)(C)CNC(=O)CC[C@@H](CC1CCOCC1)N1Cc2cc(Oc3ccccc3)ncc2N=C1N [Compound 219] | – | – | – | – | – | 64 | 640
26 | NC1=Nc2cnc(Oc3ccccc3)cc2CN1[C@@H](CCC(=O)N1CCC[C@H]1CO)C1CCCCC1 [Compound 143] | – | – | – | – | – | 65 | 1200
27 | C[C@@H](OCc1ccccc1)[C@H](CCC(=O)N(CCC(C)(C)C)Cc1ccncc1)N1Cc2cc(Oc3ccccc3)ncc2N=C1N [Compound 185, 4-(S)-(2-Amino-6-phenoxy-4H-pyrido[3,4-d]pyrimidin-3-yl)-5-(R)-benzyloxy-hexanoic acid (3,3-dimethyl-butyl)-pyridin-4-ylmethyl-amide] | – | – | – | – | – | 85 | 270
